# Biological target: PDE10A (UniProt Q9Y233)
# Assay: PDE10 enzyme inhibition, IMAP TR-FRET assay (Example A, MPDE10A7 Enzyme Activity and Inhibition)
# Type: biochemical
# Details: approximate IC50 value, Table 10
# Description: Enzyme Activity. An IMAP TR-FRET assay was used to analyze the enzyme activity (Molecular Devices Corp., Sunnyvale Calif.). 10 μL of serial diluted PDE10A (BPS Bioscience, San Diego, Calif.) or tissue homogenate was incubated with equal volumes of diluted fluorescein labeled cAMP or cGMP for 90 min in 384-well Polypropylene assay plates (Greiner, Monroe, N.C.) at room temperature. After incubation, the reaction was stopped by adding 55 μL of diluted binding reagents and was incubated for 4 hours to overnight at room temperature. The plates were read on an Envision (Perkin Elmer, Waltham, Mass.) for time resolved fluorescence resonance energy transfer. The data were analyzed with Genedata Screener® (Lexington, Mass.).
# Enzyme Inhibition. To check the inhibition profile, 0.2 μL of serial diluted compounds were incubated with 10 μL of diluted PDE10 enzyme (BPS Bioscience, San Diego, Calif.) or tissue homogenate in a 384-well Polypropylene assay plate (Greiner, Monroe, N.C.) for 60 min at room temperature. After incubation, 10 μL of diluted fluorescein labeled cAMP or cGMP substrate were added and incubated for 90 min at room temperature. The reaction was stopped by adding 55 μL of diluted binding reagents and plates were read on an Envision (Perkin Elmer, Waltham, Mass.) for time resolved fluorescence resonance energy transfer. The data were analyzed with Genedata Screener® (Lexington, Mass.).
# IC50 curves were generated from the raw data collected from the […] and fitted with a four-parameter logistic equation using in-house data analysis tool, Activity Base.
row,Compound,IC50 [nM]
1,"CC1(C)C(=O)N([C@H]2C[C@H](Nc3ncc(F)cn3)C2)c2ncccc21 [Example 71, 1-(trans-3-((5-fluoropyrimidin-2-yl)amino)cyclobutyl)-3,3-dimethyl-1H-pyrrolo[2,3-b]pyridin-2(3H)-one]",244
2,"CC1(C)C(=O)N([C@H]2C[C@H](Nc3ccnc(Cl)n3)C2)c2ncccc21 [Example 72, 1-(trans-3-((2-cholropyrimidin-4-yl)amino)cyclobutyl)-3,3-dimethyl-1H-pyrrolo[2,3-b]pyridin-2(3H)-one]",352
3,"Cc1ccc(N[C@H]2CC[C@H](N3C(=O)C(C)(C)c4nccnc43)CC2)nc1 [Example 73, 7,7-dimethyl-5-(trans-4-((5-methylpyridin-2-yl)amino)cyclohexyl)-5H-pyrrolo[2,3-b]pyrazin-6(7H)-one]",1.54
4,COc1ccc(N[C@H]2C[C@H](N3C(=O)C(C)(C)c4nccnc43)C2)nc1 [Example 74],2.88
5,"Cc1ccc(N[C@H]2CC[C@H](N3C(=O)C(C)(C)c4nccnc43)CC2)nc1 [Example 75, 7,7-Dimethyl-5-(trans-4-((5-methylpyridin-2-yl)amino)cyclohexyl)-5H-pyrrolo[2,3-b]pyrazin-6(7H)-one]",5.02
6,"CC1(C)C(=O)N([C@H]2C[C@H](Nc3ccc(F)cn3)C2)c2nccnc21 [Example 76, 5-(trans-3-((5-fluoropyridin-2-yl)amino)cyclobutyl)-7,7-dimethyl-5H-pyrrolo[2,3-b]pyrazin-6(7H)-one]",51.1
7,"CC1(C)C(=O)N([C@H]2C[C@H](Nc3ccc(C4CC4)cn3)C2)c2nccnc21 [Example 78, 5-(trans-3-((5-cyclopropylpyridin-2-yl)amino)cyclobutyl)-7,7-dimethyl-5H-pyrrolo[2,3-b]pyrazin-6(7H)-one]",4.2
8,"CC1(C)C(=O)N([C@H]2C[C@H](Nc3ncc(C4CC4)cn3)C2)c2ncccc21 [Example 79, 1-(trans-3-((5-cyclopropylpyrimidin-2-yl)amino)cyclobutyl)-3,3-dimethyl-1H-pyrrolo[2,3-b]pyridin-2(3H)-one]",6.15
9,"CC(C)c1cnc(N[C@H]2C[C@H](N3C(=O)C(C)(C)c4cccnc43)C2)nc1 [Example 82, 1-(trans-3-((5-isopropylpyrimidin-2-yl)amino)cyclobutyl)-3,3-dimethyl-1H-pyrrolo[2,3-b]pyridin-2(3H)-one]",2.83
10,"COc1cnc(N[C@H]2C[C@H](N3C(=O)C(C)(C)c4cccnc43)C2)nc1 [Example 83, 1-(trans-3-((5-methoxypyrimidin-2-yl)amino)cyclobutyl)-3,3-dimethyl-1H-pyrrolo[2,3-b]pyridin-2(3H)-one]",7.72
11,"CC(=O)c1ccc(N[C@H]2C[C@H](N3C(=O)C(C)(C)c4nccnc43)C2)nc1 [Example 84, 5-(trans-3-((5-acetylpyridin-2-yl)amino)cyclobutyl)-7,7-dimethyl-5H-pyrrolo[2,3-b]pyrazin-6(7H)-one]",23.1
12,"O=c1[nH]c2cncnc2n1[C@H]1C[C@H](Nc2nc3ccccc3s2)C1 [Example 97, 9-(trans-3-(benzo[d]thiazol-2-ylamino)cyclobutyl)-7H-purin-8(9H)-one]",3.03
13,O=c1[nH]c2cccnc2n1[C@H]1C[C@H](Nc2nc3c(F)cccc3s2)C1 [Example 98],4.82
14,"O=c1[nH]c2cccnc2n1[C@H]1C[C@H](Nc2nc3cc(F)ccc3s2)C1 [Example 99, 3-(trans-3-((5-fluorobenzo[d]thiazol-2-yl)amino)cyclobutyl)-1H-imidazo[4,5-b]pyridin-2(3H)-one]",7.7
15,O=c1oc2cccnc2n1[C@H]1C[C@H](Nc2nc3ccccc3s2)C1 [Example 100],10.3
16,"O=c1[nH]c2cccnc2n1[C@H]1C[C@H](Nc2ccc3ccc(F)cc3n2)C1 [Example 101, 3-(trans-3-((7-fluoroquinolin-2-yl)amino)cyclobutyl)-1H-imidazo[4,5-b]pyridin-2(3H)-one]",17.9
17,"O=c1[nH]c2cccnc2n1[C@H]1C[C@H](Nc2ncc3ccccc3n2)C1 [Example 102, 3-(trans-3-(quinazolin-2-ylamino)cyclobutyl)-1H-imidazo[4,5-b]pyridin-2(3H)-one]",25.6
18,"O=c1[nH]c2cccnc2n1[C@H]1C[C@@H](Nc2nc3ccccc3s2)C1 [Example 103, 3-(cis-3-(benzo[d]thiazol-2-ylamino)cyclobutyl)-1H-imidazo[4,5-b]pyridin-2(3H)-one]",26.6
19,O=c1[nH]c2cccnc2n1[C@H]1CC[C@H](Nc2nc3ccccc3s2)CC1 [Example 104],31.4
20,"COc1ccc2ccc(N[C@H]3C[C@H](n4c(=O)[nH]c5cccnc54)C3)nc2c1 [Example 105, 3-(trans-3-((7-methoxyquinolin-2-yl)amino)cyclobutyl)-1H-imidazo[4,5-b]pyridin-2(3H)-one]",35.5
21,"Cn1c(=O)n([C@H]2C[C@@H](N(C)c3nc4ccccc4s3)C2)c2ncccc21 [Example 106, 3-(cis-3-(benzo[d]thiazol-2-yl(methyl)amino)cyclobutyl)-1-methyl-1H-imidazo[4,5-b]pyridin-2(3H)-one]",43.1
22,"O=c1[nH]c2cccnc2n1[C@H]1CC[C@H](Nc2nc3cc(F)ccc3s2)CC1 [Example 107, 3-(trans-4-((5-fluorobenzo[d]thiazol-2-yl)amino)cyclohexyl)-1H-imidazo[4,5-b]pyridin-2(3H)-one]",152

# Stronger by IC50, values ahead:
row,IC50 [nM],Compound
1,1.29,"Cc1ccc(N[C@H]2CC[C@H](N3C(=O)C(C)(C)c4cccnc43)CC2)nc1 [Example 77, 3,3-Dimethyl-1-(trans-4-((5-methylpyridin-2-yl)amino)cyclohexyl)-1H-pyrrolo[2,3-b]pyridin-2(3H)-one]"
2,1.43,"C=C(C)c1cnc(NC2CC(N3C(=O)C(C)(C)c4cccnc43)C2)nc1 (stereo not shown) [Example 80, 3,3-dimethyl-1-(−3-((5-(prop-1-en-2-yl)pyrimidin-2-yl)amino)cyclobutyl)-1H-pyrrolo[2,3-b]pyridin-2(3H)-one]"
3,1.26,"CC1(C)C(=O)N([C@H]2C[C@@H](Nc3nc4ccccc4s3)C2)c2ncccc21 [Example 81, 1-(Cis-3-(benzo[d]thiazol-2-ylamino)cyclobutyl)-3,3-dimethyl-1H-pyrrolo[2,3-b]pyridin-2(3H)-one]"
4,0.0254,"O=c1n(C2CC2)c2cccnc2n1[C@H]1C[C@H](Nc2nc3ccccc3s2)C1 [Example 85, 3-(trans-3-(benzo[d]thiazol-2-ylamino)cyclobutyl)-1-cyclopropyl-1H-imidazo[4,5-b]pyridin-2(3H)-one]"
5,0.0655,"Cn1c(=O)n([C@H]2C[C@H](Nc3nc4ccccc4s3)C2)c2ncc(F)cc21 [Example 86, 3-(trans-3-(benzo[d]thiazol-2-ylamino)cyclobutyl)-6-fluoro-1-methyl-1H-imidazo[4,5-b]pyridin-2(3H)-one]"
6,0.0794,"O=c1n(C2CC2)c2cc(F)cnc2n1[C@H]1C[C@H](Nc2nc3ccccc3s2)C1 [Example 87, 3-(trans-3-(benzo[d]thiazol-2-ylamino)cyclobutyl)-6-fluoro-1-cyclopropyl-1H-imidazo[4,5-b]pyridin-2(3H)-one]"
7,0.0911,"Cn1c(=O)n([C@H]2C[C@H](Nc3nc4ccccc4s3)C2)c2ncccc21 [Example 88, 3-(trans-3-(benzo[d]thiazol-2-ylamino)cyclobutyl)-1-methyl-1H-imidazo[4,5-b]pyridin-2(3H)-one]"
8,0.131,"O=c1n(C2CCCC2)c2cccnc2n1[C@H]1C[C@H](Nc2nc3ccccc3s2)C1 [Example 89, 3-(trans-3-(benzo[d]thiazol-2-ylamino)cyclobutyl)-1-cyclopentyl-1H-imidazo[4,5-b]pyridin-2(3H)-one]"
9,0.388,"O=c1n(C2CC2)c2nccnc2n1[C@H]1C[C@H](Nc2nc3ccccc3s2)C1 [Example 90, 1-(trans-3-(benzo[d]thiazol-2-ylamino)cyclobutyl)-3-cyclopropyl-1H-imidazo[4,5-b]pyrazin-2(3H)-one]"
10,0.469,"O=c1n(C2CC2)c2cncnc2n1[C@H]1C[C@H](Nc2nc3ccccc3s2)C1 [Example 91, 9-(trans-3-(benzo[d]thiazol-2-ylamino)cyclobutyl)-7-cyclopropyl-7H-purin-8(9H)-one]"
11,0.664,"O=c1[nH]c2cccnc2n1[C@H]1C[C@H](Nc2nc3ccc(F)cc3s2)C1 [Example 92, 3-(trans-3-((6-fluorobenzo[d]thiazol-2-yl)amino)cyclobutyl)-1H-imidazo[4,5-b]pyridin-2(3H)-one]"
12,0.878,"Cn1c(=O)n([C@H]2C[C@H](Nc3nc4ccccc4s3)C2)c2ncncc21 [Example 93, 9-(trans-3-(benzo[d]thiazol-2-ylamino)cyclobutyl)-7-methyl-7H-purin-8(9H)-one]"
13,0.91,"O=c1[nH]c2cccnc2n1[C@H]1C[C@H](Nc2nc3ccccc3s2)C1 [Example 94, 3-(trans-3-(benzo[d]thiazol-2-ylamino)cyclobutyl)-1H-imidazo[4,5-b]pyridin-2(3H)-one]"
14,0.971,"Cn1c(=O)n([C@H]2C[C@H](Nc3nc4ccccc4s3)C2)c2nccnc21 [Example 95, 1-(trans-3-(benzo[d]thiazol-2-ylamino)cyclobutyl)-3-methyl-1H-imidazo[4,5-b]pyrazin-2(3H)-one]"
15,1.09,"O=c1[nH]c2cccnc2n1[C@H]1C[C@H](Nc2ccc3ccccc3n2)C1 [Example 96, 3-(trans-3-(quinolin-2-ylamino)cyclobutyl)-1H-imidazo[4,5-b]pyridin-2(3H)-one]"
